Laboratory results: patent US20250084062A1, “SUBSTITUTED QUINOLINE DERIVATIVE” (ASTELLAS PHARMA INC., priority 2021, published 2025)
Counter-ions that a name gives are not always drawn.

System: acetylcholine receptor clustering in C2Cl2 cells
Experiment: Induction of acetylcholine receptor clustering in mouse myoblasts C2Cl2 cells (Test Example 1)
Type: cell-based
Details: for Emax / EC50: Mus musculus; for Emax: Myoblast, maximum response, area of acetylcholine receptor cluster region vs 10 ng/ml Agrin (100%), 0.1 ng/ml Agrin = 0%, read-out: Max; for EC50: Myotube, C2Cl2 myotubes, with 0.1 ng/ml Agrin, concentration giving 50% of cluster area of 10 ng/ml Agrin (100%), read-out: EC50
Description: Test Example 1: Evaluation of the Induction of Acetylcholine Receptor Clustering in Mouse Myoblasts C2Cl2 Cells
Induction of acetylcholine receptor clustering by the test compound was evaluated by using fluorescently-labeled Bungarotoxin to image and quantify the acetylcholine receptor cluster region induced by the differentiation of myoblasts into myotubes, and measure the change in area. The following test method was optimized with reference to various reports including FEBS let., 586, 3111-3116 (2012). When a concentration response curve is obtained by plotting the logarithmic concentration of the test compound on the horizontal axis and the ratio of the area of acetylcholine receptor cluster region on the vertical axis, the inducing action of the test compound can be determined.
A concentration response curve as an index indicating acetylcholine receptor clustering inducing action of the test compound in mouse C2Cl2 cells was prepared. C2Cl2 cells (ATCC Number: CRL-1772) were seeded at about 5000 cells/well on a 384-well plate (354667; Corning) coated with type I collagen and allowed to incubate at 37 degrees Celsius overnight in DMEM+20% FBS+1% penicillin/streptomycin medium. The following day, the medium was removed and replaced with a differentiation medium containing DMEM+2% FBS+1% penicillin/streptomycin, and allowed to incubate at 37 degrees Celsius for 4 days. The test compound was dissolved in DMSO and added to a differentiation medium containing 0.1 ng/ml Agrin (550-AG-100; R&D systems) such that the final concentration was […] (3-fold serial dilution) or 0.00017 to 3.3 μM (3-fold serial dilution). The final concentration of DMSO was 0.3%. After the 4 days of incubation, the differentiation medium was replaced with a differentiation medium containing the test compound and 0.1 ng/ml Agrin or a differentiation medium containing 0.1 ng/ml Agrin or 10 ng/ml Agrin alone, and allowed to incubate at 37 degrees Celsius overnight. The next day, 10 μl of DMEM containing Bungarotoxin-Alexa488 (B13422; Life technologies) was added to the differentiation medium containing test compound and Agrin and Agrin alone so that the final concentration of Bungarotoxin-Alexa488 was 1 μg/ml, and was allowed to incubate at 37 degrees Celsius for 1 hour to label the acetylcholine receptor. After removing all the medium, 4% PFA was added to each well and allowed to incubate at room temperature for 10 minutes, then washed with PBS, and allowed to incubate at room temperature for 30 minutes in PBS containing 5% goat serum and 0.3% Triton X-100. After removing the PBS solution, PBS-Tween20 (28352; Thermo fisher scientific) containing Anti-Myosin Heavy Chain eFluor (registered trademark) 660 (50-6503-82; eBioscience) and DAPI (340-07971; Dojindo) was added to each well and allowed to incubate at room temperature for 1 hour to label the myotubes and nuclei. After washing three times with PBS-Tween20, the fluorescence was imaged using IN Cell Analyzer 6000 (GE Healthcare). […] The response of control group (1) was regarded as 0% and the response of the control group (2) was regarded as 100%. For quantification, the signal of only the acetylcholine receptor present in the myotube was used to eliminate non-specific fluorescence.
EC50 and Max value were used as indicators of activity in order to quantitatively evaluate the inducing action of the test compound on acetylcholine receptor clustering. EC50 value is a test compound concentration which indicates 50% in terms of the area of acetylcholine receptor cluster region compared to that of 10 ng/ml Agrin (regarded as 100%) in the concentration response curve. EC50 was calculated by nonlinear regression analysis from the concentration response curve using the area of the cluster region of the test compound as an index. Max value is the maximum response value. […]

| SMILES | EC50 [nM] | Emax [%] | response, % at 30 μM (at 30 μM, vs 10 ng/ml Agrin (100%)) [% at 30 μM] |
| --- | --- | --- | --- |
| Cc1cc(-c2c(F)cc(S(=O)(=O)N3CC[C@H](F)C3)cc2F)nc2nc(C3CCC(C(=O)O)CC3)ccc12 (stereo partly drawn) [Example 37] | 3220 | 70.1 |  |
| Cc1c(F)c(-c2c(F)cc(S(=O)(=O)N3CCCC34CC4)cc2F)nc2cc(C(=O)O)ccc12 [Example 25] | 182 | 105 |  |
| CNCCN(C)C(=O)c1ccc2c(C)cc(-c3c(F)cc(S(=O)(=O)N4CC[C@H](F)C4)cc3F)nc2c1 [Example 59] | 49 | 95.8 |  |
| COCc1cc(S(=O)(=O)N2CC[C@H](F)C2)ccc1-c1cc(C)c2ccc(C(=O)O)cc2n1 [Example 32] |  | 38.8 | 38.8 |
| Cc1cc(-c2c(F)cc(S(=O)(=O)N3CC[C@H](F)C3)cc2F)nc2nc(C3CCN(C)CC3)ccc12 [Example 17, 2-{2,6-difluoro-4-[(3S)-3-fluoropyrrolidine-1-sulfonyl]phenyl}-4-methyl-7-(1-methylpiperidin-4-yl)-1,8-naphthyridine hydrochloride] | 65 | 78.7 |  |
| Cc1cc(-c2c(F)cc(S(=O)(=O)N3CCCC3)cc2F)nc2cc(C(=O)O)ccc12 [Example 21] | 147 | 97.3 |  |
| Cc1cc(-c2ccc(S(=O)(=O)N3CC[C@H](F)C3)cc2F)nc2c(F)c(N3CCNCC3=O)ccc12 [Example 55] | 7160 | 38.9 |  |
| Cc1cc(-c2ccc(S(=O)(=O)N3CC[C@H](F)C3)cc2F)nc2c(F)c(C(=O)O)ccc12 [Example 7, 8-fluoro-2-{2-fluoro-4-[(3S)-3-fluoropyrrolidine-1-sulfonyl]phenyl}-4-methylquinoline-7-carboxylic acid] | 1850 | 78.4 |  |
| Cc1cc(-c2ccc(S(=O)(=O)N3CCC(F)CC3)cc2F)nc2cc(C(=O)O)ccc12 [Example 5, 2-[2-fluoro-4-(4-fluoropiperidine-1-sulfonyl)phenyl]-4-methylquinoline-7-carboxylic acid] | 95 | 86.8 |  |
| Cc1cc(-c2ccc(S(=O)(=O)N3C[C@@H](F)[C@H](F)C3)cc2F)nc2cc(C(=O)O)ccc12 [Example 27] | 103 | 94.6 |  |
| Cc1cc(-c2ccc(S(=O)(=O)N3CC[C@H](F)C3)cc2F)nc2cc(C(=O)NCC3(O)CNC3)ccc12 [Example 65] | 53 | 84 |  |
| Cc1cc(-c2ccc(S(=O)(=O)N3CC[C@H](F)C3)cc2C#N)nc2cc(C(=O)O)ccc12 [Example 30] | 1120 | 94.7 |  |
| Cc1c(F)c(-c2c(F)cc(S(=O)(=O)N3CCCC3)cc2F)nc2cc(C(=O)O)ccc12 [Example 23] | 69 | 85.9 |  |
| Cc1cc(-c2c(F)cc(S(=O)(=O)N3CC[C@H](F)C3)cc2F)nc2nc(C(=O)O)ccc12 [Example 39] | 2570 | 78.2 |  |
| Cc1cc(-c2c(F)cc(S(=O)(=O)N3CC[C@@H](F)C3)cc2F)nc2cc(C(=O)O)ccc12 [Example 22] | 1900 | 84.8 |  |
| Cc1cc(S(=O)(=O)N2CC[C@H](F)C2)ccc1-c1nc2cc(C(=O)O)ccc2c(C)c1F [Example 51] | 159 | 77.8 |  |
| Cc1cc(-c2c(F)cc(S(=O)(=O)N3CC[C@H](F)C3)cc2F)nc2cc(C(=O)N[C@@H](CN)C(=O)O)ccc12 [Example 12, (2S)-3-amino-2-(2-{2,6-difluoro-4-[(3S)-3-fluoropyrrolidine-1-sulfonyl]phenyl}-4-methylquinoline-7-carboxamido) propanoic acid hydrochloride] | 268 | 69.7 |  |

The remaining compounds from weak to strong by EC50, led by results:

| EC50 [nM] | SMILES | Emax [%] | response, % at 30 μM (at 30 μM, vs 10 ng/ml Agrin (100%)) [% at 30 μM] |
| --- | --- | --- | --- |
| 45 | CNCCCc1ccc2c(C)c(F)c(-c3c(F)cc(S(=O)(=O)N4CC[C@H](F)C4)cc3F)nc2c1 [Example 16, 3-(2-{2,6-difluoro-4-[(3S)-3-fluoropyrrolidine-1-sulfonyl]phenyl}-3-fluoro-4-methylquinolin-7-yl)-N-methylpropan-1-amine hydrochloride] | 91.1 |  |
| 33 | Cc1cc(-c2c(F)cc(S(=O)(=O)N3CC[C@H](F)C3)cc2F)nc2cc(C(=O)NC[C@H]3COCCN3)ccc12 [Example 52] | 94.2 |  |
| 33 | Cc1cc(-c2c(F)cc(S(=O)(=O)N3CCC(F)CC3)cc2F)nc2cc(C(=O)NCCCN)ccc12 [Example 58] | 89.6 |  |
| 26 | CNCCNC(=O)c1ccc2c(C)cc(-c3c(F)cc(S(=O)(=O)N4CC[C@H](F)C4)cc3F)nc2n1 [Example 61] | 92.4 |  |
| 24 | Cc1cc(-c2ccc(S(=O)(=O)N3CC[C@H](F)C3)cc2F)nc2cc(OC[C@@H](O)CO)ccc12 [Example 64] | 107 |  |
| 20 | Cc1cc(-c2c(F)cc(S(=O)(=O)N3CC[C@H](F)C3)cc2F)nc2cc(/C=C/C(=O)O)ccc12 [Example 35] | 99.5 |  |
| 19 | Cc1c(F)c(-c2c(F)cc(S(=O)(=O)N3CCCC3(C)C)cc2F)nc2cc(C(=O)O)ccc12 [Example 26] | 99.8 |  |
| 19 | Cc1cc(-c2c(F)cc(S(=O)(=O)N3CC[C@H](F)C3)cc2F)nc2cc(C(=O)N3CC4(CN(C)C4)C3)ccc12 [Example 42] | 78.1 |  |
| 16 | Cc1cc(-c2c(F)cc(S(=O)(=O)N3CC[C@H](F)C3)cc2F)nc2cc(CCC(=O)O)ccc12 [Example 34] | 94.1 |  |
| 16 | CNCCNC(=O)c1ccc2c(C)cc(-c3c(F)cc(S(=O)(=O)N4CC[C@H](F)C4)cc3F)nc2c1 [Example 10, 2-{2,6-difluoro-4-[(3S)-3-fluoropyrrolidine-1-sulfonyl]phenyl}-4-methyl-N-[2-(methylamino)ethyl]quinoline-7-carboxamide hydrochloride] | 96.7 |  |
| 13 | Cc1c(F)c(-c2c(F)cc(S(=O)(=O)N3CC[C@H](F)C3)cc2F)nc2cc(C(=O)O)ccc12 [Example 20, 2-{2,6-difluoro-4-[(3S)-3-fluoropyrrolidine-1-sulfonyl]phenyl}-3-fluoro-4-methylquinoline-7-carboxylic acid] | 86.5 |  |
| 11 | Cc1c(F)c(-c2c(F)cc(S(=O)(=O)N3CCC[C@@H]3C)cc2F)nc2cc(C(=O)O)ccc12 [Example 24] | 92.3 |  |
| 10 | Cc1cc(-c2c(F)cc(S(=O)(=O)N3CC[C@H](F)C3)cc2F)cc2nc(N3CCNCC3)ccc12 [Example 66] | 88.4 |  |
| 9 | Cc1c(F)c(-c2c(F)cc(S(=O)(=O)N3CC[C@H](F)C3)cc2F)nc2cc(C(=O)N3CC4(CN(C)C4)C3)ccc12 [Example 45] | 86.1 |  |
| 2 | CNCCNC(=O)c1ccc2c(C)cc(-c3c(F)cc(S(=O)(=O)N4CC[C@H](F)C4)cc3F)c(F)c2n1 [Example 15, 7-{2,6-difluoro-4-[(3S)-3-fluoropyrrolidine-1-sulfonyl]phenyl}-8-fluoro-5-methyl-N-[2-(methylamino)ethyl]quinoline-2-carboxamide hydrochloride] | 105 |  |
| 2 | Cc1cc(-c2c(F)cc(S(=O)(=O)N3CCC(F)CC3)cc2F)nc2cc(C(=O)N3CC4(CN(C)C4)C3)ccc12 [Example 3, {2-[2,6-difluoro-4-(4-fluoropiperidine-1-sulfonyl)phenyl]-4-methylquinolin-7-yl}(6-methyl-2,6-diazaspiro[3.3]heptan-2-yl) methanone] | 91.8 |  |
